Where two headings read alike, the source gives them in different places.
Columns and labels:
PRMT5 = test: Immunoblot of global SDMA in neonatal rat ventricular cardiomyocytes; format: cell-based; settings: concentrations up to 50 μM
Myh7 and Nppa expression = test: PRMT5i combined with ORAB/sham surgery: quantitative PCR of Myh7 and Nppa in left-ventricular tissue; format: in vivo; settings: mice
Procedure: (§1) The surgical procedure was essentially performed as previously described^20. In brief, animals were narcotized using Isoflurane. The thorax was opened and a nitrile O-ring (inner diameter 0.020 inch) was closed around the aorta ascendens in order to enhance pressure load of the left ventricle. Perisurgically and for the following days, analgesia was maintained via buprenorphine.
1µg of RNA was reverse transcribed (PrimaDIRECT 2x PCR Master Mix Kit (Steinbrenner)) and cDNA was subjected to quantitative PCR on a LightCycler480 (Roche) using SYBR Green Master Mix (Thermo Fisher).
mmMyh7: • For: 5’ AGCATTCTCCTGCTGTTTCCT 3’ • Rev: 5’ CCAGGCCTGTAGAAGAGCTG 3’
mmNppa: • For: 5’ ATTGACAGGATTGGAGCCCAGAGT 3’ • Rev: 5’ TGACACACCACAAGGGCTTAGGAT 3’
mmGapdh: • For: 5’ GGTGGACCTCATGGCCTACA 3’ • Rev: 5’ CTCTCTTGCTCAGTGTCCTTGCT 3’

HEK293 cells = test: PRMT5i-associated cytotoxicity, CellTiter 96 Cell Proliferation Assay; format: cell-based; settings: dosage escalation beyond 10 μM, 48 h exposure
Procedure: HEK293 cells (ATCC) were cultured in DMEM (PanBiotech) supplemented with 10% FCS (Thermo Fisher) and 1% penicillin-streptomycin (Thermo Fisher) and incubated at standard conditions. Cells between passage 5 and 18 were used for experiments. Neonatal rat ventricular myocytes (NRVMs) were isolated from 24h-to-72h old rats using the Neonatal Heart Dissociation Kit (Miltenyi Biotec) according to manufacturer’s recommendations, cultured in DMEM supplemented with 10% FCS and 1% penicillin-streptomycin and incubated at standard conditions. EPZ015666 and GSK3326595 (MedChemExpress) were dissolved in DMSO and added into the culture medium at indicated dosages. For protein analysis, cells were treated for 96 h including a medium exchange after 48 h. Control cells were treated with DMSO accordingly. Single values in the analysis represent individually treated wells (technical replicates) and experiments were reproduced at least three times using independent cell passages or preparations. […] The treatment was performed in individual wells and absorbance at 570 nm was recorded on an EnSight Plate reader (PerkinElmer).

[1] = Single-dose pharmacokinetics in mice: tissue levels (heart, liver, kidney, skeletal muscle) by UPLC-MS/MS; format: in vivo; settings: for concentration at 1 h: po, 100 mg/kg, oral 100 mg/kg, peak (1 h)
Procedure: (§2) All animal studies were approved by and conducted in accordance with the German Animal Welfare Act and approved by the Animal Experiment Review Board of the Regierungspräsidium Karlsruhe, Germany. The study refers to the application […]-19. C57BL/6N mice were purchased from Charles River at the age of 12 weeks. Male and female mice were included in an equal ratio. The compound (Medchemexpress) was dissolved in 5% DMSO, 40% PEG300, 5% Tween-80 in isotonic saline solution and administered either via oral gavage or by injection into the tail vein. Control animals received the same solution without compound. […] Tissue samples were homogenized in water using a Bead Ruptor 4 homogenizer (Omni International Inc, USA) for at least 120 s with ceramic beads. After protein precipitation with acetonitrile, plasma and tissue sample extracts were measured using an UPLC-MS/MS (Waters, USA) setup including an Acquity UPLC I-Class® coupled with a Xevo TQ-S triple stage quadrupole mass spectrometer (Waters), which featured a heated ESI source (Z-Spray in the positive MRM mode). Gradient chromatography was conducted using an ACQUITY UPLC BEH C18 column (130 Å, 1.7 μm, 2.1 mm × 50 mm; Waters, USA) consisting of eluent A (95/5 H2O/ACN with 0.1% formic acid) and eluent B (ACN with 0.1% formic acid).

hematopoiesis [2] = test: Long-term application in mice: blood cell parameters; format: in vivo; settings: 8 weeks
Procedure: Hematological parameters were analyzed using an automated hematology analyzer ([…] ABC, ABX Diagnostics, France) according to manufacturer's instructions. Whole blood samples were collected into EDTA-coated tubes to prevent coagulation. The following parameters were determined: red blood cell count (RBC), white blood cell count (WBC), hemoglobin concentration (HGB), mean corpuscular volume (MCV), mean corpuscular hemoglobin (MCH), platelet count (PLT), and differential leukocyte counts.

murine heart [3] = test: PRMT5i combined with ORAB/sham surgery: histology (fibrosis); format: in vivo; settings: mice
From the text: The surgical procedure was essentially performed as previously described^20. In brief, animals were narcotized using Isoflurane. The thorax was opened and a nitrile O-ring (inner diameter 0.020 inch) was closed around the aorta ascendens in order to enhance pressure load of the left ventricle. Perisurgically and for the following days, analgesia was maintained via buprenorphine. Heart cross-sections (2-chamber view) were fixed in Roti Histofix (Roth, P087.5) and dehydrated in ethanol. After paraffin embedding, slices of 6µm thickness were cut and used for Hematoxylin/Eosin and Masson’s trichrome staining. Imaging was performed on a Zeiss Axioscan 7. For analysis, 10 snapshots of fixed dimension were taken per animal and the percentage of fibrotic tissue was assessed based on color threshold using ImageJ.

murine heart [4] = test: PRMT5i combined with O-ring aortic banding (ORAB)/sham surgery: echocardiography; format: in vivo; settings: mice, 56 days combined with ORAB/sham surgery
Procedure: The compound (Medchemexpress) was dissolved in 5% DMSO, 40% PEG300, 5% Tween-80 in isotonic saline solution and administered either via oral gavage or by injection into the tail vein. Control animals received the same solution without compound. Cardiac performance was determined by transthoracic echocardiography. Measurements on conscious mice were performed using a Vevo® 2100 system with a 55 MHz transducer (Visualsonics). Ejection fraction (EF) was averaged over at least 5 contraction cycles. The experimenter was blinded for genotype and treatment.

[5] = Single-dose pharmacokinetics in mice: plasma levels by UPLC-MS/MS; format: in vivo
Procedure: as §2

mice [6] = test: Long-term application in mice: body weight, mortality, heart and lung weight to tibia length; format: in vivo; settings: 8 weeks
Procedure: (§3) All animal studies were approved by and conducted in accordance with the German Animal Welfare Act and approved by the Animal Experiment Review Board of the Regierungspräsidium Karlsruhe, Germany. The study refers to the application G210-19. C57BL/6N mice were purchased from Charles River at the age of 12 weeks. Male and female mice were included in an equal ratio.
(§4) The compound (Medchemexpress) was dissolved in 5% DMSO, 40% PEG300, 5% Tween-80 in isotonic saline solution and administered either via oral gavage or by injection into the tail vein. Control animals received the same solution without compound.

hematopoiesis [7] = test: PRMT5i combined with ORAB/sham surgery: blood cell parameters; format: in vivo; settings: mice, chronic PRMT5i with ORAB/sham
Procedure: The surgical procedure was essentially performed as previously described^20. In brief, animals were narcotized using Isoflurane. The thorax was opened and a nitrile O-ring (inner diameter 0.020 inch) was closed around the aorta ascendens in order to enhance pressure load of the left ventricle. Perisurgically and for the following days, analgesia was maintained via buprenorphine. Hematological parameters were analyzed using an automated hematology analyzer ([…] ABC, ABX Diagnostics, France) according to manufacturer's instructions. Whole blood samples were collected into EDTA-coated tubes to prevent coagulation. The following parameters were determined: red blood cell count (RBC), white blood cell count (WBC), hemoglobin concentration (HGB), mean corpuscular volume (MCV), mean corpuscular hemoglobin (MCH), platelet count (PLT), and differential leukocyte counts.

murine heart [8] = test: Short-term application in mice: histology of cardiac cross-sections; format: in vivo; settings: oral once or twice a day, 5 consecutive days
Procedure: The compound (Medchemexpress) was dissolved in 5% DMSO, 40% PEG300, 5% Tween-80 in isotonic saline solution and administered either via oral gavage or by injection into the tail vein. Control animals received the same solution without compound. Heart cross-sections (2-chamber view) were fixed in Roti Histofix (Roth, P087.5) and dehydrated in ethanol. After paraffin embedding, slices of 6µm thickness were cut and used for Hematoxylin/Eosin and Masson’s trichrome staining. Imaging was performed on a Zeiss Axioscan 7. For analysis, 10 snapshots of fixed dimension were taken per animal and the percentage of fibrotic tissue was assessed based on color threshold using ImageJ.

patients = settings: ref [12], [18]; cited from earlier work
mice [9] = test: PRMT5i combined with ORAB/sham surgery: mortality; format: in vivo; settings: PRMT5i-treated mice undergoing ORAB
Procedure: as §4, §1

murine heart [10] = test: Long-term application (8 weeks) in mice: transthoracic echocardiography; format: in vivo; settings: over the course of 8 weeks
Procedure: as §3, §4
(§5) Cardiac performance was determined by transthoracic echocardiography. Measurements on conscious mice were performed using a Vevo® 2100 system with a 55 MHz transducer (Visualsonics). Ejection fraction (EF) was averaged over at least 5 contraction cycles. The experimenter was blinded for genotype and treatment.

murine heart [11] = test: Long-term application in mice: Masson Trichrome histology (fibrosis); format: in vivo; settings: 8 weeks
Procedure: Heart cross-sections (2-chamber view) were fixed in Roti Histofix (Roth, P087.5) and dehydrated in ethanol. After paraffin embedding, slices of 6µm thickness were cut and used for Hematoxylin/Eosin and Masson’s trichrome staining. Imaging was performed on a Zeiss Axioscan 7. For analysis, 10 snapshots of fixed dimension were taken per animal and the percentage of fibrotic tissue was assessed based on color threshold using ImageJ.

murine heart [12] = test: Short-term application (5 consecutive days) in mice: transthoracic echocardiography, survival; format: in vivo
Procedure: as §3, §4, §5

O=C(NC[C@H](O)CN1CCc2ccccc2C1)c1cc(NC2COC2)ncn1 [EPZ015666]
global SDMA (PRMT5): did not detect a significant reduction of global SDMA

CC(=O)N1CCC(Nc2cc(C(=O)NC[C@H](O)CN3CCc4ccccc4C3)ncn2)CC1 [GSK3326595]
expression of cardiac stress markers Myh7 and Nppa (Myh7 and Nppa expression): stable expression of classical cardiac stress markers such as Myh7 and Nppa | cytotoxicity (HEK293 cells): significantly less cytotoxicity as compared to EPZ015666 | heart targeted by % dosage on average ([1]; as worded): 19.0% | muscle tissue targeted by % dosage on average ([1]; as worded): 26.0% | heart targeted by % dosage on average (versus liver) ([1]; as worded in b7, first of 'respectively'): 26.0% | heart targeted by % dosage on average (versus kidney) ([1]; as worded in b7, second of 'respectively'): 19.0% | concentration at 1 h ([1]; both sexes, C57BL/6N, mouse, heart, read-out: absolute inhibitor concentration in heart): 82700 ng/g | Tmax ([1]; both sexes, C57BL/6N, mouse, liver, kidney, heart, skeletal muscle, other: oral (gavage) and intravenous (tail vein), both arms, single dose, read-out: time of maximum levels in liver, kidney, heart and skeletal muscle): 1 h | concentration at 1 h ([1]; both sexes, C57BL/6N, mouse, skeletal muscle, read-out: absolute inhibitor concentration in skeletal muscle): 172000 ng/g | hematology: anemia, lymphopenia (hematopoiesis [2]): significant anemia and lymphopenia | platelets counts (hematopoiesis [2]): unaltered | fibrotic remodeling (histology) (murine heart [3]): no significant fibrotic remodeling | longitudinal echocardiographic analysis (murine heart [4]): no statistical significance was found for any of the indicated time points in any group comparison | half-life ([5]; both sexes, C57BL/6N, mouse, plasma): 2.5 h | bioavailability ([5]; both sexes, C57BL/6N, mouse, plasma, po): 5.7% | decline of plasma concentration on average ([5]; over a course of 12 h): > 90% | time of plasma peak concentration post application ([5]; single dose oral gavage or intravenous): 1 h | heart weight-to-tibia length and lung weight-to-tibia length (mice [6]): did not reveal PRMT5i-induced alterations | tolerability (body weight, mortality) (mice [6]): well tolerated as determined by stable body weight without treatment-associated mortality | hematology: anemia, leucopenia (hematopoiesis [7]): significant normocytic normochromic anemia and leucopenia | platelets (hematopoiesis [7]): not affected | tissue morphology / fibrotic remodeling (murine heart [8]): no immediate detrimental effects or fibrotic remodeling | adverse cardiovascular events in clinical studies (patients): manifested adverse cardiovascular events were not described | mortality (mice [9]): delayed mortality starting 2 weeks post-surgery | systolic cardiac function (murine heart [10]): preserved | myocardial fibrosis (Masson Trichrome staining) (murine heart [11]): remained stable | ejection fraction (murine heart [12]; oral once or twice a day, 5 consecutive days): did not detect changes in ejection fraction | death during the experiment (murine heart [12]; short-term application, 10 mg/kg): one animal (10 mg/kg) that died during the course of the experiment
